Measurements published in US20240261356A1, “COMPOSITION CONTAINING ACANTHOPANAX EXTRACT AND GARCINIA CAMBOGIA EXTRACT OR COMPOUND ISOLATED THEREFROM AS ACTIVE INGREDIENT FOR PREVENTION OR TREATMENT OF LIVER DISEASE” (KOREA RESEARCH INSTITUTE OF BIOSCIENCE AND BIOTECHNOLOGY, priority 2021, published 2024).

Columns and labels:
HepG2 cells [1] = assay: Fatty acid-induced intracellular fat accumulation (BODIPY fluorescence) in non-alcoholic fatty liver cell model; type: cell-based, human
Procedure: The human liver-derived HepG2 cell line was purchased from American Type Culture Collection (ATCC, VA, USA). HepG2 cells were cultured at 37° C. in an incubator supplied with 5% carbon dioxide. For the cell culture, MEM (Gibco Cat No. 11095-098) medium containing 10% fetal bovine serum (FBS) and 1% antibiotics (Penicillin-streptomycin, Gibco) was used. HepG2 cells were seeded in a 96-well plate at 1×10^4 cells/well, and, after 24 hours, treated with 150 μM oleic acid (Sodium oleate, Sigma, USA) for 24 hours to increase intracellular fat accumulation. The drug treated group was treated 1 hour before being treated with oleic acid. Upon completion of the experiment, the cells were fixed with 4% formaldehyde for 10 minutes and washed twice with PBS buffer. A solution containing […] (Invitrogen Corporation, NY, USA) was added and cultured at room temperature for 30 minutes. At this time, the final concentration of the fluorescent dye BODIPY was 2 μg/ml. After completion of the reaction, the plate was washed three times with PBS buffer, and, when only the minimum amount of PBS remained, the fluorescence was quantified by using a SpectraMax M4 microplate reader (Molecular Devices, USA). At this time, the excitation wavelength was 485 nm, and the emission was 525 nm. The experiment was performed by blocking light with aluminum foil to allow in as little light as possible.

[2] = tested on: non-alcoholic steatohepatitis (NASH) animal models; assay: Fibrosis marker hydroxyproline in liver tissue of NASH animal model; type: in vivo, C57bl/6J mice; conditions: NASH mice, 8 weeks, Chiisanogenin 50 mg/kg
Procedure: (§1) 8-week-old male C57bl/6J mice were fed a NASH-inducing diet (#A06071302 diet) for 8 weeks, and, from the 9th week, single samples (i.e., Garcinia extract, Acanthopanax extract or Chiisanogenin) and a composite sample thereof were administered for 8 weeks, together with NASH dietary feed (#A06071302 diet). To verify the efficacy of each of the Garcinia extract (notified raw material, 60% HCA) and Chiisanogenin or their mixture at each non-clinical administration concentration by using a non-alcoholic steatohepatitis (NASH)-induced animal model, changes of aspartate aminotransferase (AST) and alanine aminotransferase (ALT), which are biomarkers of liver tissue damage, in the serum of the non-alcoholic steatohepatitis (NASH) C57bl/6J mouse models caused by feeding NASH-inducing dietary feed (#A06071302) were observed, and the results are shown in Tables 11 and 12, respectively. In addition, the results of observing changes of hydroxyproline, which is a biomarker of liver fibrosis, in liver tissues are shown in Table 13.

HepG2 cells [3] = assay: Cell viability (CCK-8) of fatty acid-induced non-alcoholic fatty liver cell model; type: cell-based, human; conditions: Table 6, Garcinia extract 0 + Chiisanogenin 6 μg/ml
Procedure: The human liver-derived HepG2 cell line was purchased from American Type Culture Collection (ATCC, VA, USA). HepG2 cells were cultured at 37° C. in an incubator supplied with 5% carbon dioxide. For the cell culture, MEM (Gibco Cat No. 11095-098) medium containing 10% fetal bovine serum (FBS) and 1% antibiotics (Penicillin-streptomycin, Gibco) was used. HepG2 cells were seeded in a 96-well plate at 1×10^4 cells/well, and, after 24 hours, treated with 150 μM oleic acid (Sodium oleate, Sigma, USA) for 24 hours to increase intracellular fat accumulation. The drug treated group was treated 1 hour before being treated with oleic acid. […] After completion of the reaction, the plate was washed three times with PBS buffer, and, when only the minimum amount of PBS remained, the fluorescence was quantified by using a SpectraMax M4 microplate reader (Molecular Devices, USA). […]
In the experimental conditions of the present invention, cell viability was determined by mixing 90 μl of medium with 10 μl of CCK-8 solution, adding 100 μl per well and reacting the mixture for at least 30 minutes to 1 hour, followed by measurement of the absorbance at 450 nm, as described in the CCK-8 (Dojindo) kit. The cell viability was calculated according to Equation 1 below, taking the negative control as 100%, and the results are shown in Tables 8 and 9 below.

[4] = tested on: non-alcoholic steatohepatitis (NASH) animal models; assay: AST in serum of non-alcoholic steatohepatitis (NASH) animal model; type: in vivo, C57bl/6J mice; conditions: NASH mice, 8 weeks, Chiisanogenin 50 mg/kg
Procedure: as §1

[5] = tested on: non-alcoholic steatohepatitis (NASH) animal models; assay: ALT in serum of non-alcoholic steatohepatitis (NASH) animal model; type: in vivo, C57bl/6J mice; conditions: NASH mice, 8 weeks, Chiisanogenin 50 mg/kg
Procedure: as §1

C=C(C)[C@@H]1CC[C@]2(C(=O)O)CC[C@]3(C)[C@H](C[C@H]4OC(=O)C[C@@H](O)[C@]5(C)[C@@H]4[C@@]3(C)CC[C@H]5C(=C)C)[C@@H]12 [Chiisanogenin]
inhibition at 6 µg/mL (HepG2 cells [1]; Homo sapiens, HepG2, Table 4, fat accumulation, Garcinia extract 0 + Chiisanogenin 6 μg/ml, read-out: Inhibition rate (%)): 80% | TG (% relative to positive control group, mean ± deviation) (HepG2 cells [1]; Table 4, Garcinia extract 0 + Chiisanogenin 6 μg/ml): 64 ± 7.9 % | Hydroxyproline in liver tissues (% relative to positive control group, mean ± deviation) [2]: 69 ± 28% | Inhibition rate (%, mean ± deviation) ([2]; liver hydroxyproline): 26 ± 11.9% | Cell viability (%, mean ± deviation) (HepG2 cells [3]): 105 ± 13.7% | AST in serum (% relative to positive control group, mean ± deviation) [4]: 97 ± 15.4% | Inhibition rate (%, mean ± deviation) ([4]; serum AST): 4 ± 19.8% | ALT in serum (% relative to positive control group, mean ± deviation) [5]: 89 ± 14.6% | Inhibition rate (%, mean ± deviation) ([5]; serum ALT): 12 ± 5.1%
